# In the kinase profiling compilation of Christmann-Franck et al. (2016):
# Columns and labels:
# Assay in all cases: radiometric filter-binding kinase assay, Kinase HotSpot
# Details in all cases: compound 0.5 µM; ATP 10 µM
# ACVR1 (human) = ACVR1 (human) (UniProt Q04771)
# ADRBK1 (human) = ADRBK1 (human) (UniProt P25098)
# ADRBK2 (human) = ADRBK2 (human) (UniProt P35626)
# CAMK2G (human) = CAMK2G (human) (UniProt Q13555)
# CDK2 CCNE1 (human) = CDK2 CCNE1 (human) (UniProt P24941+P24864)
# CDK3 CCNE1 (human) = CDK3 CCNE1 (human) (UniProt Q00526+P24864)
# CDK6 CCND1 (human) = CDK6 CCND1 (human) (UniProt Q00534+P24385)
# CDK9 CCNK (human) = CDK9 CCNK (human) (UniProt O75909+P50750)
# CHEK2 (human) = CHEK2 (human) (UniProt O96017)
# CSF1R (human) = CSF1R (human) (UniProt P07333)
# DYRK1B (human) = DYRK1B (human) (UniProt Q9Y463)
# DYRK4 (human) = DYRK4 (human) (UniProt Q9NR20)
# EPHA8 (human) = EPHA8 (human) (UniProt P29322)
# ERBB4 (human) = ERBB4 (human) (UniProt Q15303)
# FGFR4 (human) = FGFR4 (human) (UniProt P22455)
# GRK7 (human) = GRK7 (human) (UniProt Q8WTQ7)
# GSK3B (human) = GSK3B (human) (UniProt P49841)
# LRRK2 (human) = LRRK2 (human) (UniProt Q5S007)
# MAP3K5 (human) = MAP3K5 (human) (UniProt Q99683)
# MAP3K9 (human) = MAP3K9 (human) (UniProt P80192)
# MAP4K2 (human) = MAP4K2 (human) (UniProt Q12851)
# MAPK10 (human) = MAPK10 (human) (UniProt P53779)
# MAPKAPK3 (human) = MAPKAPK3 (human) (UniProt Q16644)
# NEK3 (human) = NEK3 (human) (UniProt P51956)
# NEK4 (human) = NEK4 (human) (UniProt P51957)
# NEK6 (human) = NEK6 (human) (UniProt Q9HC98)
# NEK7 (human) = NEK7 (human) (UniProt Q8TDX7)
# NUAK1 (human) = NUAK1 (human) (UniProt O60285)
# PDGFRA (human) = PDGFRA (human) (UniProt P16234)
# PHKG2 (human) = PHKG2 (human) (UniProt P15735)
# PLK1 (human) = PLK1 (human) (UniProt P53350)
# PRKCA (human) = PRKCA (human) (UniProt P17252)
# PRKCB1 (human) = PRKCB1 (human) (UniProt P05771)
# [1] = tested on: PRKCQ (human), Q04759 [P330L]
# PRKCZ (human) = PRKCZ (human) (UniProt Q05513)
# PRKG2 (human) = PRKG2 (human) (UniProt Q13237)
# PTK6 (human) = PTK6 (human) (UniProt Q13882)
# SRMS (human) = SRMS (human) (UniProt Q9H3Y6)
# TBK1 (human) = TBK1 (human) (UniProt Q9UHD2)
# TGFBR1 (human) = TGFBR1 (human) (UniProt P36897)
# TTK (human) = TTK (human) (UniProt P33981)
# WNK3 (human) = WNK3 (human) (UniProt Q9BYP7)
# Sequence of CAMK2G (human) (Q13555 whole entry, looked up): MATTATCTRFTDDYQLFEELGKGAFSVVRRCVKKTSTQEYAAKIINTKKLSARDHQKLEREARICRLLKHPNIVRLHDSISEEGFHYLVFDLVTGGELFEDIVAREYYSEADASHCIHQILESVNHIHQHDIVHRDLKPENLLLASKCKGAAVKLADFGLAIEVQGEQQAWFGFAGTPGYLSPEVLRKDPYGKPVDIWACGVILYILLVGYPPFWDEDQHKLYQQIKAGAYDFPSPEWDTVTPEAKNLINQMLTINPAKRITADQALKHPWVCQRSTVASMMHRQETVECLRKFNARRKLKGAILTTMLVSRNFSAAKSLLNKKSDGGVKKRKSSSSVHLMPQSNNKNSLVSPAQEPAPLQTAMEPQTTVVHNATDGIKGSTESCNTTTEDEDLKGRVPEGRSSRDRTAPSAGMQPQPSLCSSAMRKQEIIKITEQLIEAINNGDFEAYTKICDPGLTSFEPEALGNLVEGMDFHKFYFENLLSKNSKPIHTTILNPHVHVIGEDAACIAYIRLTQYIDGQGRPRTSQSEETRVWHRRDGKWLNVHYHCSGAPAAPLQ
# Sequence of CDK6 CCND1 (human) (P24385 whole entry, looked up): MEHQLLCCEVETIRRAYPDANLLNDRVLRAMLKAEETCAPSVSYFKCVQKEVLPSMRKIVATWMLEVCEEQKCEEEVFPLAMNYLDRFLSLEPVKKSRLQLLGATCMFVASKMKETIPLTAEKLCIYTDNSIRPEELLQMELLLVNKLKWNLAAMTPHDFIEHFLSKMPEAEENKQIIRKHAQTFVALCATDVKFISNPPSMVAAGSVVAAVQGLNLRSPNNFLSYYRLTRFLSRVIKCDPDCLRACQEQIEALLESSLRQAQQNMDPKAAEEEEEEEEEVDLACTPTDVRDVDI
# Sequence of CDK6 CCND1 (human) (Q00534 whole entry, looked up): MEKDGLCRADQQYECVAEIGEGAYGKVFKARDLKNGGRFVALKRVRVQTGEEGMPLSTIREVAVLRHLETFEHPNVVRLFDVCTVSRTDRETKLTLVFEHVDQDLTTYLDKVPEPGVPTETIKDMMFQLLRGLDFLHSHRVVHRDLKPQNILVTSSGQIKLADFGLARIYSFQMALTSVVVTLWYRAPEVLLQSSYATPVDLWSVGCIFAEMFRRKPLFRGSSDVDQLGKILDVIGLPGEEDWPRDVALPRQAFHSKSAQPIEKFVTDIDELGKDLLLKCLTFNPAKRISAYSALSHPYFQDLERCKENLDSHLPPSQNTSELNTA
# Sequence of GRK7 (human) (Q8WTQ7 whole entry, looked up): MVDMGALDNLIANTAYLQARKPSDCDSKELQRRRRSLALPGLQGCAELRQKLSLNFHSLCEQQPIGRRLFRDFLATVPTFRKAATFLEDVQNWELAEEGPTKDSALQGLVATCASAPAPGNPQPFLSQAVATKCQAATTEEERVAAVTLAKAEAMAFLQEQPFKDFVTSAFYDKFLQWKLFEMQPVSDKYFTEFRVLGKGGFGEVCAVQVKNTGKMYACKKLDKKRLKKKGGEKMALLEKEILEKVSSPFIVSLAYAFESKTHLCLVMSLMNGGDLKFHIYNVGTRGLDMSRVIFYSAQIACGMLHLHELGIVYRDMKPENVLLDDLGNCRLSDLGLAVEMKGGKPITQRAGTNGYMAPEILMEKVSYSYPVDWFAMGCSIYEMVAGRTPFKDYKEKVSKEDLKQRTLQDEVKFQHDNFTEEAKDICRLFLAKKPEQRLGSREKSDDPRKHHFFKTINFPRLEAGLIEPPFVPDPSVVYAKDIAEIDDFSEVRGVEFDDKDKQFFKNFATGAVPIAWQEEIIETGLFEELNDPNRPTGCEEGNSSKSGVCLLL
# Sequence of PDGFRA (human) (P16234 whole entry, looked up): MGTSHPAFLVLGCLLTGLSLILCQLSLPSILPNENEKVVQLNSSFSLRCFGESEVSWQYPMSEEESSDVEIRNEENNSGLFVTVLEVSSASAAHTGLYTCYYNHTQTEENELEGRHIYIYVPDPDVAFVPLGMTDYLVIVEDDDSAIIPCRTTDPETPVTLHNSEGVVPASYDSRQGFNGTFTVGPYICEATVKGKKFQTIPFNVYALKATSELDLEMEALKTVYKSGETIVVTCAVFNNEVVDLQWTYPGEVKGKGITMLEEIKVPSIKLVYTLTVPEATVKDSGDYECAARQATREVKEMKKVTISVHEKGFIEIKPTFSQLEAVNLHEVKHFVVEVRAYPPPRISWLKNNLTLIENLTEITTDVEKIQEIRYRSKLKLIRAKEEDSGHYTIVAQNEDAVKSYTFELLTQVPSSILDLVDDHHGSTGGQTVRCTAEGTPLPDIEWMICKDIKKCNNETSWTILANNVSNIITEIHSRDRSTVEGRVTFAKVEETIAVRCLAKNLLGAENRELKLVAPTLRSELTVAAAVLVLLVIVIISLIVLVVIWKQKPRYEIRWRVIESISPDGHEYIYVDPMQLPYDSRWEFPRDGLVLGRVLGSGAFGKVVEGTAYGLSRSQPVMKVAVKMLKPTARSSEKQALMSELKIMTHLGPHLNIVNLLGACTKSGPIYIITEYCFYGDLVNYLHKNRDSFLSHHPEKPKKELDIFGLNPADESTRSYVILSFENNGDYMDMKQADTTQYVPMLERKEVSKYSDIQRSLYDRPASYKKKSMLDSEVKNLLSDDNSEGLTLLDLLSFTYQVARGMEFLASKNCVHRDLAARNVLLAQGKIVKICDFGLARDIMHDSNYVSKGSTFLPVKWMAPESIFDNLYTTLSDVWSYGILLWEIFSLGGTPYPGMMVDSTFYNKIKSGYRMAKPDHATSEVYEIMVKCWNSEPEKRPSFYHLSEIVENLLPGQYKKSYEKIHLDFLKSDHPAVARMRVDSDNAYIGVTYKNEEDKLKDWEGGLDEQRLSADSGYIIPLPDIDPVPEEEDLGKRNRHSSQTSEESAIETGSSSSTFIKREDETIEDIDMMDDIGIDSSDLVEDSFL
# Sequence of CDK2 CCNE1 (human) (P24864 whole entry, looked up, other chains not shown): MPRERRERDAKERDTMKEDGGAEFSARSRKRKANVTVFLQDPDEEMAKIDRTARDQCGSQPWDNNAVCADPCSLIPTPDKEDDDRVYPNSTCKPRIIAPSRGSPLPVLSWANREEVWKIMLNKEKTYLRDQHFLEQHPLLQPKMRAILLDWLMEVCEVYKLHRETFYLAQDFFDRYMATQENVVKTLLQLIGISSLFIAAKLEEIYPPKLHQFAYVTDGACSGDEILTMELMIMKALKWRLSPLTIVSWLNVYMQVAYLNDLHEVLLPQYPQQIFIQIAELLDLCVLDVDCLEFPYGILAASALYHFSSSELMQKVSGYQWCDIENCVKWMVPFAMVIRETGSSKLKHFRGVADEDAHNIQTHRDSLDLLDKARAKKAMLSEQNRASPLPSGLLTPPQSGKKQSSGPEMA
# Sequence of CDK3 CCNE1 (human) (P24864 whole entry, looked up): as the sequence (P24864 whole entry, looked up, other chains not shown) above
# Sequence of CDK3 CCNE1 (human) (Q00526 whole entry, looked up): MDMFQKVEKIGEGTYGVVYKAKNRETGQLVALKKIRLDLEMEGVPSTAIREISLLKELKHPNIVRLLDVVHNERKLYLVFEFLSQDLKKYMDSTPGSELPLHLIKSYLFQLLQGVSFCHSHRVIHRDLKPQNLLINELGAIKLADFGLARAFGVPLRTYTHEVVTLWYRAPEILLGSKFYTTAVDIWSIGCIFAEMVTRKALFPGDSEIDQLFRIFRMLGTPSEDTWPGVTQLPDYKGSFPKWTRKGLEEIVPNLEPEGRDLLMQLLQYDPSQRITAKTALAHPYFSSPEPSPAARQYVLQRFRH
# Sequence of GSK3B (human) (P49841 whole entry, looked up): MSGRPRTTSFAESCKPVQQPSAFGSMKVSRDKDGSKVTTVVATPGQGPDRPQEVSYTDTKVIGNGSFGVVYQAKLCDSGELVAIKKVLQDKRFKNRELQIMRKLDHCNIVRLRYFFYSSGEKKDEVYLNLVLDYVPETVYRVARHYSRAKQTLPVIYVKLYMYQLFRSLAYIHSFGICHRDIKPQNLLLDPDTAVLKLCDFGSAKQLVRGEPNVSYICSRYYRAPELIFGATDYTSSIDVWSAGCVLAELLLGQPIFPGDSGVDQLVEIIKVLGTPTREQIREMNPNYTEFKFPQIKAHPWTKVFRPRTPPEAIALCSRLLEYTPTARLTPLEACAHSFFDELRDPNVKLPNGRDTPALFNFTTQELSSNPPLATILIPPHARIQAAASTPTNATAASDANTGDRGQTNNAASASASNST
# Sequence of PHKG2 (human) (P15735 whole entry, looked up): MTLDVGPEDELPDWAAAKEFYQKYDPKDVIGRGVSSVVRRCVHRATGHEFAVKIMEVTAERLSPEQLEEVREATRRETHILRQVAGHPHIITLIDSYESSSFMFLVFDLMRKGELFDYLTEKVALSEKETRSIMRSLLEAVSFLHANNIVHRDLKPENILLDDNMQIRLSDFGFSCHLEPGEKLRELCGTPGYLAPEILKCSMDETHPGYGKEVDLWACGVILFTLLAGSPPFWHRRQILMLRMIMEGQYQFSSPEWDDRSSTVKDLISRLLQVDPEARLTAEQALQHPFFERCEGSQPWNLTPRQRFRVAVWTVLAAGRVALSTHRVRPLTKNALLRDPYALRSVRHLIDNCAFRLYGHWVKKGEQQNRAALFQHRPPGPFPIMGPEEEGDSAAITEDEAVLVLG
# Sequence of NEK3 (human) (P51956 whole entry, looked up): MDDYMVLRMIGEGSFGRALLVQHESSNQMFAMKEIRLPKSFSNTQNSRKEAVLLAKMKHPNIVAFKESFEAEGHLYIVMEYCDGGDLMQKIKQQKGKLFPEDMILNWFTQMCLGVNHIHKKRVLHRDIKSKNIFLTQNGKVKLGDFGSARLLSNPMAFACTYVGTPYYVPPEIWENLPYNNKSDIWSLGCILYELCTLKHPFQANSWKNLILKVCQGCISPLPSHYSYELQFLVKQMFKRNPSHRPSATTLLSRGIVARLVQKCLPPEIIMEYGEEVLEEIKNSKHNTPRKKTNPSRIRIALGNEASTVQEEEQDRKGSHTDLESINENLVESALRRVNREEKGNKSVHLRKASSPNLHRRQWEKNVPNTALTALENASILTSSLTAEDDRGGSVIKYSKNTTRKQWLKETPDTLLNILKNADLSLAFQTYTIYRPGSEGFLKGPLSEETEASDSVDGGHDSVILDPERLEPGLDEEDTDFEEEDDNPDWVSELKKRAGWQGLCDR
smiles,measurement,setting,value
O=C1Nc2ccc(Br)cc2/C1=C\c1cc2c([nH]1)CCCC2,residual activity,ACVR1 (human),97%
same,residual activity,ADRBK1 (human),105%
same,residual activity,ADRBK2 (human),89.9%
same,residual activity,CAMK2G (human),92.4%
same,residual activity,CDK2 CCNE1 (human),96%
same,residual activity,CDK3 CCNE1 (human),93.2%
same,residual activity,CDK6 CCND1 (human),90.4%
same,residual activity,CDK9 CCNK (human),96.7%
same,residual activity,CHEK2 (human),68.2%
same,residual activity,CSF1R (human),49.7%
same,residual activity,DYRK1B (human),93.9%
same,residual activity,DYRK4 (human),102%
same,residual activity,EPHA8 (human),94.5%
same,residual activity,ERBB4 (human),84.6%
same,residual activity,FGFR4 (human),77%
same,residual activity,GRK7 (human),85.2%
same,residual activity,GSK3B (human),94.1%
same,residual activity,LRRK2 (human),7.03%
same,residual activity,MAP3K5 (human),101%
same,residual activity,MAP3K9 (human),53.4%
same,residual activity,MAP4K2 (human),58.1%
same,residual activity,MAPK10 (human),98.7%
same,residual activity,MAPKAPK3 (human),95.1%
same,residual activity,NEK3 (human),86.7%
same,residual activity,NEK4 (human),80.5%
same,residual activity,NEK6 (human),103%
same,residual activity,NEK7 (human),103%
same,residual activity,NUAK1 (human),27.7%
same,residual activity,PDGFRA (human),76.2%
same,residual activity,PHKG2 (human),90.5%
same,residual activity,PLK1 (human),102%
same,residual activity,PRKCA (human),102%
same,residual activity,PRKCB1 (human),97.4%
same,residual activity,[1],98.4%
same,residual activity,PRKCZ (human),104%
same,residual activity,PRKG2 (human),92.4%
same,residual activity,PTK6 (human),82.3%
same,residual activity,SRMS (human),104%
same,residual activity,TBK1 (human),66.9%
same,residual activity,TGFBR1 (human),100%
same,residual activity,TTK (human),95.1%
same,residual activity,WNK3 (human),93.8%
CS(=O)(=O)CCNCc1ccc(-c2ccc3ncnc(Nc4ccc(OCc5cccc(F)c5)c(Cl)c4)c3c2)o1,residual activity,ACVR1 (human),106%
same,residual activity,ADRBK1 (human),94.8%
same,residual activity,ADRBK2 (human),96.7%
same,residual activity,CAMK2G (human),111%
same,residual activity,CDK2 CCNE1 (human),98.8%
same,residual activity,CDK3 CCNE1 (human),94.6%
same,residual activity,CDK6 CCND1 (human),100%
same,residual activity,CDK9 CCNK (human),103%
same,residual activity,CHEK2 (human),96.8%
same,residual activity,CSF1R (human),106%
same,residual activity,DYRK1B (human),93.1%
same,residual activity,DYRK4 (human),103%
same,residual activity,EPHA8 (human),99.5%
same,residual activity,ERBB4 (human),11.2%
same,residual activity,FGFR4 (human),96.6%
same,residual activity,GRK7 (human),95.8%
same,residual activity,GSK3B (human),103%
same,residual activity,LRRK2 (human),76.9%
same,residual activity,MAP3K5 (human),105%
same,residual activity,MAP3K9 (human),112%
same,residual activity,MAP4K2 (human),104%
same,residual activity,MAPK10 (human),100%
same,residual activity,MAPKAPK3 (human),103%
same,residual activity,NEK3 (human),99.6%
same,residual activity,NEK4 (human),98.1%
same,residual activity,NEK6 (human),93.7%
same,residual activity,NEK7 (human),98.7%
same,residual activity,NUAK1 (human),108%
same,residual activity,PDGFRA (human),108%
same,residual activity,PHKG2 (human),99.5%
same,residual activity,PLK1 (human),99%
same,residual activity,PRKCA (human),83%
same,residual activity,PRKCB1 (human),93.5%
same,residual activity,[1],72.4%
same,residual activity,PRKCZ (human),79.7%
same,residual activity,PRKG2 (human),107%
same,residual activity,PTK6 (human),103%
same,residual activity,SRMS (human),97.9%
same,residual activity,TBK1 (human),103%
same,residual activity,TGFBR1 (human),101%
same,residual activity,TTK (human),102%
same,residual activity,WNK3 (human),104%
Cc1nc(-c2ccccc2)c(-c2ccncc2)o1,residual activity,ACVR1 (human),104%
same,residual activity,ADRBK1 (human),100%
same,residual activity,ADRBK2 (human),101%
same,residual activity,CAMK2G (human),91.7%
same,residual activity,CDK2 CCNE1 (human),93.4%
same,residual activity,CDK3 CCNE1 (human),98.1%
same,residual activity,CDK6 CCND1 (human),101%
same,residual activity,CDK9 CCNK (human),101%
same,residual activity,CHEK2 (human),96.6%
same,residual activity,CSF1R (human),104%
same,residual activity,DYRK1B (human),98.9%
same,residual activity,DYRK4 (human),91.2%
same,residual activity,EPHA8 (human),78.8%
same,residual activity,ERBB4 (human),92.2%
same,residual activity,FGFR4 (human),76.5%
same,residual activity,GRK7 (human),98.3%
same,residual activity,GSK3B (human),105%
same,residual activity,LRRK2 (human),96.8%
same,residual activity,MAP3K5 (human),102%
same,residual activity,MAP3K9 (human),79.4%
same,residual activity,MAP4K2 (human),106%
same,residual activity,MAPK10 (human),101%
same,residual activity,MAPKAPK3 (human),94.7%
same,residual activity,NEK3 (human),93.7%
same,residual activity,NEK4 (human),100%
same,residual activity,NEK6 (human),94.4%
same,residual activity,NEK7 (human),102%
same,residual activity,NUAK1 (human),100%
same,residual activity,PDGFRA (human),96.3%
same,residual activity,PHKG2 (human),97.6%
same,residual activity,PLK1 (human),104%
same,residual activity,PRKCA (human),98.3%
same,residual activity,PRKCB1 (human),95.2%
same,residual activity,[1],120%
same,residual activity,PRKCZ (human),103%
same,residual activity,PRKG2 (human),85%
same,residual activity,PTK6 (human),86%
same,residual activity,SRMS (human),102%
same,residual activity,TBK1 (human),88%
same,residual activity,TGFBR1 (human),102%
same,residual activity,TTK (human),100%
same,residual activity,WNK3 (human),106%
COc1ccc(S(=O)(=O)N(CCO)c2ccccc2CN(C)C/C=C/c2ccc(Cl)cc2)cc1,residual activity,ACVR1 (human),90.6%
same,residual activity,ADRBK1 (human),97.9%
same,residual activity,ADRBK2 (human),105%
same,residual activity,CAMK2G (human),98.6%
same,residual activity,CDK2 CCNE1 (human),94%
same,residual activity,CDK3 CCNE1 (human),103%
same,residual activity,CDK6 CCND1 (human),92.7%
same,residual activity,CDK9 CCNK (human),99.1%
same,residual activity,CHEK2 (human),101%
same,residual activity,CSF1R (human),103%
same,residual activity,DYRK1B (human),104%
same,residual activity,DYRK4 (human),99.6%
same,residual activity,EPHA8 (human),100%
same,residual activity,ERBB4 (human),104%
same,residual activity,FGFR4 (human),98.3%
same,residual activity,GRK7 (human),114%
same,residual activity,GSK3B (human),102%
same,residual activity,LRRK2 (human),101%
same,residual activity,MAP3K5 (human),93.7%
same,residual activity,MAP3K9 (human),102%
same,residual activity,MAP4K2 (human),92.6%
same,residual activity,MAPK10 (human),95.5%
same,residual activity,MAPKAPK3 (human),101%
same,residual activity,NEK3 (human),96.2%
same,residual activity,NEK4 (human),98.7%
same,residual activity,NEK6 (human),103%
same,residual activity,NEK7 (human),93.4%
same,residual activity,NUAK1 (human),96.5%
same,residual activity,PDGFRA (human),102%
same,residual activity,PHKG2 (human),103%
same,residual activity,PLK1 (human),98.8%
same,residual activity,PRKCA (human),98.2%
same,residual activity,PRKCB1 (human),97.7%
same,residual activity,[1],110%
same,residual activity,PRKCZ (human),100%
same,residual activity,PRKG2 (human),104%
same,residual activity,PTK6 (human),89.3%
same,residual activity,SRMS (human),101%
same,residual activity,TBK1 (human),97.1%
same,residual activity,TGFBR1 (human),101%
same,residual activity,TTK (human),83.3%
same,residual activity,WNK3 (human),99.4%
